Reference: patent US20240325412A1, “COMBINATIONS” (Recurium IP Holdings, LLC, priority 2021, published 2024)

Assays:
KMS-12-BM cells = experiment: KMS-12-BM multiple myeloma xenograft model; type: in vivo, Mice; conditions: KMS-12-BM xenograft, Compound (1A) 25 mg/kg, Compound (B) 30 mg/kg, Dexamethasone 1 mg/kg (text: 100 and 60 mg/kg)
Procedure: Mice were inoculated with KMS-12-BM cells subcutaneously on the right flank with the single cell suspension of 95% viable tumor cells (1×10^7) in 100 μL IMDM Matrigel mixture (1:1 ratio) without serum for the tumor development. The treatment was started when the mean tumor size reached approximately 193 mm^3, with individual tumor size ranging from 185-220 mm^3. Animals were randomly distributed into treatment groups of 10 animals each and dosed with vehicle and indicated compounds at indicated dosage and frequency shown in FIG. 7 and Table 6. In FIG. 7, the bottom line is Compound (1A) 100 mg/kg p.o. qd×21+Compound (B) 60 mg/kg p.o. pd×21+Dexamethasone 1 mg/kg IP 5 days on 2 days off ×3, the second from the bottom line is Compound (1A)+Compound (B), the third from the bottom line is Compound (B)+Dexamethasone, the fourth from the bottom line (indicated with triangles) is Compound (B), the top line is Vehicle, the second from the top line is Dexamethasone, the third from the top line is Compound (1A) and the remaining line is Compound (1A)+Dexamethasone. Tumor volumes were evaluated twice per week to calculate tumor volume over time, and mice were weighed twice per week as a surrogate for signs of toxicity. Tumor growth inhibition (TGI) was calculated using the following equation TGI=(1−(Td−T0)/(Cd−C0))×100%. Td and Cd are the mean tumor volumes of the treated and control animals, and T0 and C0 are the mean tumor volumes of the treated and control animals at the start of the experiment. The tumor regression was defined as individual tumor volume (TV) decrease (terminal TV compared to initial TV). The percent tumor regression was calculated using the formula: (1−(Td/T0))×100%.

OPM-2 cells [1] = experiment: CellTiter-Glo Luminescent Cell Viability Assay, OPM-2; type: cell-based; conditions: Homo sapiens, 72 h, Compound (1A) 1500 nM, Compound (B) 300 nM, Dexamethasone 100 nM, alone or combined
Procedure: (§1) Cell proliferation was measured using the CellTiter-Glo® Luminescent Cell Viability Assay. The assay involved the addition of a single reagent (CellTiter-Glo® Reagent) directly to cells cultured in serum-supplemented medium. OPM-2, MOLM-13 and HL-60 cells were cultured according to ATCC recommendations and were seeded at 10,000 cells per well.
(§2) Compound (1 A), Compound (B) and Dexamethasone or Azacitidine were prepared as a DMSO stock solution (10 mM). For OPM-2 cell line, compounds were tested in triplicate using Dexamethasone; MOLM-13 and HL-60 cell lines compound were tested in triplicate using Azacitidine. Plates were incubated at 37° C., 5% CO2 for 72 h and then equilibrated at room temperature (RT) for approximately 30 min. An equal-volume amount of CellTiter-Glo® Reagent (100 μL) was added to each well. Plates were mixed for 2 min on an orbital shaker to induce cell lysis and then incubated at RT for 10 min to stabilize the luminescent signal. Luminescence (RLU (relative light unit)) was recorded using a SpectraMAX, M5e plate reader according to CellTiter-Glo protocol. Percent inhibition was calculated using the following formula: % inhibition=(RLU*100/(RLU of the cell background)).

MOLM-13 cells = experiment: CellTiter-Glo Luminescent Cell Viability Assay, MOLM-13; type: cell-based; conditions: Homo sapiens, 72 h, Compound (1A) 4 nM, Compound (B) 12 nM alone / 120 nM in combinations, Azacitidine 300 nM
Procedure: as §1, §2

[2] = tested on: MDA-MB-436 cells (TNBC breast cancer cell line); experiment: MDA-MB-436 triple negative breast cancer xenograft model; type: in vivo, Mice; conditions: MDA-MB-436 xenograft; Compound (1A) 200 mg/kg p.o. qd×40, Compound (B) 60 mg/kg p.o. qd×40; day 40
Procedure: Mice were inoculated with MDA-MB-436 cells (TNBC breast cancer cell line) subcutaneously on the right flank with the single cell suspension of 95% viable tumor cells (1×10^7) in 100 μL DMDM Matrigel mixture (1:1 ratio) without serum for the tumor development. The treatment was started when the mean tumor size reached approximately 210 mm^3 for each model (with individual tumor volumes between 180-240 mm^3). Animals were randomly distributed into treatment groups of 8 animals each and dosed with vehicle and indicated compounds at indicated dosage and frequency shown in FIG. 8 and Table 7. In FIG. 8, the top line (indicated with circles) is Vehicle control, the second from the top line (indicated with diamonds) is Compound (1A) (200 mg/kg 10 mL/kg p.o. qd×40) and the third line from the top (indicated with triangles) Compound (B) (60 mg/kg 10 mL/kg p.o. qd×40). The bottom line (indicated with circles) is Compound (1A) (200 mg/kg 10 mL/kg p.o. qd×40)+Compound (B) (60 mg/kg 10 mL/kg p.o. qd×40). Tumor volumes were evaluated twice per week to calculate tumor volume over time, and mice were weighed twice per week as a surrogate for signs of toxicity. Tumor growth inhibition (TGI) was calculated using the following equation TGI=(1−(Td−T0)/(Cd−C0))×100%. […]

HL-60 cells [3] = experiment: HL-60 leukemia xenograft model; type: in vivo, Mice; conditions: HL-60 xenograft, Compound (1A) 25 mg/kg p.o. qd×21, Compound (B) 30 mg/kg p.o., azacitidine 1 mg/kg IP 5 days on 2 days off
Procedure: Mice were inoculated with HL-60 cells subcutaneously on the right flank with the single cell suspension of 95% viable tumor cells (1×10^7) in 100 μL IMDM Matrigel mixture (1:1 ratio) without serum for the tumor development. The treatment was started when the mean tumor size reached approximately 214 mm^3, with individual tumor size ranging from 185-245 mm^3. Animals were randomly distributed into treatment groups of 10 animals each and dosed with vehicle and indicated compounds at indicated dosage and frequency shown in FIG. 5 and Table 4. In FIG. 5, the bottom line is Compound (1A) 25 mg/kg p.o. qd×21+Compound (B) 30 mg/kg p.o. pd×21+azacitidine 1 mg/kg IP 5 days on 2 days off×3 cycle, the second from the bottom line is Compound (1A)+Compound (B), the third from the bottom line is Compound (1A)+azacytidine, the fourth from the bottom line is Compound (1A), the top line is Vehicle, the second from the top line is Compound (B), and the remaining two lines are azacytidine (indicated with triangles) and Compound (B)+azacytidine (indicated with diamonds). Tumor volumes were evaluated twice per week to calculate tumor volume over time, and mice were weighed twice per week as a surrogate for signs of toxicity. Tumor growth inhibition (TGI) was calculated using the following equation TGI=(1−(Td−T0)/(Cd−C0))×100%. Td and Cd are the mean tumor volumes of the treated and control animals, and T0 and C0 are the mean tumor volumes of the treated and control animals at the start of the experiment. The tumor regression was defined as individual tumor volume (TV) decrease (terminal TV compared to initial TV). FIG. 5 and Table 4 illustrate that single agent, double agent and triple treatment of Compound (1A) at 25 mg/kg, Compound (B) at 30 mg/kg and azacitidine at 1 mg/kg.

OPM-2 cells [4] = experiment: OPM-2 multiple myeloma xenograft model; type: in vivo, Mice; conditions: OPM-2 xenograft, Compound (1A) 25 mg/kg, Compound (B) 30 mg/kg, Bortezomib 0.5 mg/kg (text: 100 and 60 mg/kg p.o. qd×21, IP BIW)
Procedure: Mice were inoculated with OPM-2 cells subcutaneously on the right flank with the single cell suspension of 95% viable tumor cells (1×10^7) in 100 μL IMDM Matrigel mixture (1:1 ratio) without serum for the tumor development. The treatment was started when the mean tumor size reached approximately 200 mm^3, with individual tumor size ranging from 185-225 mm^3. Animals were randomly distributed into treatment groups of 10 animals each and dosed with vehicle and indicated compounds at indicated dosage and frequency shown in FIG. 6 and Table 5. In FIG. 6, the bottom line is Compound (1A) 100 mg/kg p.o. qd×21+Compound (B) 60 mg/kg p.o. pd×21+Bortezomib 0.5 mg/kg IP BIW (twice a week)×3, the second from the bottom line is Compound (1A)+Compound (B), the third from the bottom line is Compound (B)+Bortezomib, the fourth from the bottom line is Compound (B), the top line is Vehicle, the second from the top is Bortezomib, the third from the top line (indicted with squares) is Compound (1A) and the fourth from the top line is Compound (1A)+Bortezomib. Tumor volumes were evaluated twice per week to calculate tumor volume over time, and mice were weighed twice per week as a surrogate for signs of toxicity. Tumor growth inhibition (TGI) was calculated using the following equation TGI=(1−(Td−T0)/(Cd−C0))×100%. Td and Cd are the mean tumor volumes of the treated and control animals, and T0 and C0 are the mean tumor volumes of the treated and control animals at the start of the experiment. The tumor regression was defined as individual tumor volume (TV) decrease (terminal TV compared to initial TV). FIG. 6 and Table 5 illustrate that single agent, double agent, and triple treatment of Compound (1A) at 100 mg/kg, Compound (B) at 60 mg/kg and bortezomib at 0.5 mg/kg.

HL-60 cells [5] = experiment: CellTiter-Glo Luminescent Cell Viability Assay, HL-60; type: cell-based; conditions: Homo sapiens, 72 h, Compound (1A) 40 nM, Compound (B) 120 nM, Azacitidine 1500 nM, alone or combined
Procedure: as §1, §2

SMILES	TGI % (DAY 14) (KMS-12-BM cells)	TGI % [2]	TGI % (DAY 18) (HL-60 cells [3])	TGI % (DAY 17) (OPM-2 cells [4])	also measured
CC1(C)CCC(CN2CCN(c3ccc(C(=O)NS(=O)(=O)c4ccc(NC[C@H]5CC[C@](C)(O)CC5)c([N+](=O)[O-])c4)c(Oc4cnc5[nH]ccc5c4)c3)CC2)=C(C23CC(C(F)F)(C2)C3)C1 [Compound (1A)]	62.8%	60%	25%	18%	inhibition at 1.5 µM (OPM-2 cells [1]): 43%; inhibition at 0.004 µM (MOLM-13 cells): 35.4%; inhibition at 0.04 µM (HL-60 cells [5]): 20.4%
C=CCn1c(=O)c2cnc(Nc3ccc(N4CCN(C)CC4)cc3)nc2n1-c1ccc2c(n1)[C@@](O)(CC)CC2 [Compound (B)]	74.5%	55%	6%	33%	inhibition at 0.3 µM (OPM-2 cells [1]): 4.3%; inhibition at 0.012 µM (MOLM-13 cells): 38.6%; inhibition at 0.12 µM (HL-60 cells [5]): 5.6%
CC(C)C[C@H](NC(=O)[C@H](Cc1ccccc1)NC(=O)c1cnccn1)B(O)O [Bortezomib, reference compound]				0%	
Nc1ncn([C@@H]2O[C@H](CO)[C@@H](O)[C@H]2O)c(=O)n1 [Azacitidine, reference compound]			16%		inhibition at 0.3 µM (MOLM-13 cells): 10.7%; inhibition at 1.5 µM (HL-60 cells [5]): 2.3%
C[C@@H]1C[C@H]2[C@@H]3CCC4=CC(=O)C=C[C@]4(C)[C@@]3(F)[C@@H](O)C[C@]2(C)[C@@]1(O)C(=O)CO [Dexamethasone, reference compound]	22.5%				inhibition at 0.1 µM (OPM-2 cells [1]): 32%
